The target of this assay is T1, human GluN1/GluN2B NMDA receptors (Homo sapiens, UniProt Q13224).
T1 construct: expressed in transfected cells
Nature of the assay: Cell-based calcium flux (FLIPR) assay on cloned human NR1/NR2B ion channels expressed in mammalian cells (standard and HTS buffer variants). (A change in cytosolic calcium serves as a functional read-out for many receptors and channels.)

Setting [1] is: HTS assay buffer (1.5 mM MgCl2 in dye loading buffer; 150 mM NaCl, 3 mM KCl in assay buffer), human GluN1/GluN2B, read-out: NR2B IC50 (μM) HTS assay.
[2] abbreviates: standard assay buffer (0.5 mM MgCl2 dye loading; 137 mM NaCl, 4 mM KCl assay buffer), human GluN1/GluN2B cells, read-out: NR2B IC50 (μM) standard assay.
Setting [3] is: standard assay buffer (0.5 mM MgCl2 in dye loading buffer; 137 mM NaCl, 4 mM KCl in assay buffer), human GluN1/GluN2B, read-out: NR2B IC50 (μM) standard assay.
Where [4] appears, read: HTS assay buffer (1.5 mM MgCl2 dye loading; 150 mM NaCl, 3 mM KCl assay buffer), human GluN1/GluN2B cells, read-out: NR2B IC50 (μM) HTS assay.

Read-outs that look alike come from different tables or passages of the source. Where only a bound is given, the exact number is not on record here.
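Also: stable Tet-On inducible cell line, Ca2+ influx triggered by glutamate at about EC40 plus 10 µM glycine, fluorescent dye read-out over 5 min, normalized to control wells.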

T1 sequence (Q13224 27-1484, other chains not shown): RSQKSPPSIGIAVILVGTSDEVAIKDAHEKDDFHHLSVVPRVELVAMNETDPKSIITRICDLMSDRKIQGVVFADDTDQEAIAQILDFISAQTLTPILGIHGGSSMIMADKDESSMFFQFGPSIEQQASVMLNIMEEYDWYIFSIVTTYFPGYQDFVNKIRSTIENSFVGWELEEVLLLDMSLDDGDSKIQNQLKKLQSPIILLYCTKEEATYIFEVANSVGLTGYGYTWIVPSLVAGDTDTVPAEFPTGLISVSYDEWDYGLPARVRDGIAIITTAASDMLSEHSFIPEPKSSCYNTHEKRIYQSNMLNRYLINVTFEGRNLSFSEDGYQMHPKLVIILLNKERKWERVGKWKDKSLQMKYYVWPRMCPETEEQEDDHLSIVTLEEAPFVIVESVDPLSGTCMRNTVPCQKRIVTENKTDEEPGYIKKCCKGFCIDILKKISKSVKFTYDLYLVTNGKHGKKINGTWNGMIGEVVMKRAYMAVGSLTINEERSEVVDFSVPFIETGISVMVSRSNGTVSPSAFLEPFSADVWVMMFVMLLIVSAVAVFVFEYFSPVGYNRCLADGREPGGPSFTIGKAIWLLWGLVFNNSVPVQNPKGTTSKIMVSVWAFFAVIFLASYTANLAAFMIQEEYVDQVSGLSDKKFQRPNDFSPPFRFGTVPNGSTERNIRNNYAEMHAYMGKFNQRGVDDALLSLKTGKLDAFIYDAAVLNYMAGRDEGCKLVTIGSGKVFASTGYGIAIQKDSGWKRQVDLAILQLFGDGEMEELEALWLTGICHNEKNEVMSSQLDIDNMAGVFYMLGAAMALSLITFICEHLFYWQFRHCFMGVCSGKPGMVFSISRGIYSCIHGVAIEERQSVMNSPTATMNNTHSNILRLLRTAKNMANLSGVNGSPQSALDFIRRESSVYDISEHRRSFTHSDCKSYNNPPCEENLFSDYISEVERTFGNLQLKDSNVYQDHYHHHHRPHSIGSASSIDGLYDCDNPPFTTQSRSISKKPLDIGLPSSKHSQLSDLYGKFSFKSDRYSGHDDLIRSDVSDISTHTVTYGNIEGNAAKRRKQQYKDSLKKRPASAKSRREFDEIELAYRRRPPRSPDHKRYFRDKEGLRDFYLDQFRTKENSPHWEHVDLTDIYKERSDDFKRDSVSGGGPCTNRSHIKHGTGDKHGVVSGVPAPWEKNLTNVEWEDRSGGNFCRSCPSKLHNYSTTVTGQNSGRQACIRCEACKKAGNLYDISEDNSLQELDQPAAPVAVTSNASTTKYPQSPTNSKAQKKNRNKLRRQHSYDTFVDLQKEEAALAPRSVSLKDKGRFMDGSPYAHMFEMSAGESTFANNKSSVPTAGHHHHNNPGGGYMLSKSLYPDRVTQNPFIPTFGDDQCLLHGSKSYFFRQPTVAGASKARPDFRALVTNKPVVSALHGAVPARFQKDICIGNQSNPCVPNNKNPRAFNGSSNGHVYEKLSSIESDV

Consider `COc1ccc(-c2cnc3[nH]c(=O)n(CC(=O)NC4CC4)c3c2)c(OC)c1` [Example 454, N-Cyclopropyl-2-[6-(2,4-dimethoxyphenyl)-2-oxo-3H-imidazo[4,5-b]pyridin-1-yl]acetamide], for which the IC50 (as a rule, the midpoint of a concentration-inhibition curve) under setting [1] was 1.94 µM. Consider `Cn1ccc(Cn2c(=O)[nH]c3ncc(-c4ccc(F)cc4)cc32)n1` [Example 128, 6-(4-Fluorophenyl)-1-[(1-methylpyrazol-3-yl)methyl]-3H-imidazo[4,5-b]pyridin-2-one], for which, under setting [2], the IC50 stood at 5.16 µM. As to `Cc1c(F)ccc(-c2cnc3c(c2)n(Cc2csnn2)c(=O)n3C)c1F` [Example 576, 6-(2,4-Difluoro-3-methyl-phenyl)-3-methyl-1-(thiadiazol-4-ylmethyl)imidazo[4,5-b]pyridin-2-one], the IC50 under setting [3] was determined as 0.05 µM. The same measure, in the same setting: the result for `Cn1c(=O)n(Cc2cccnc2)c2cc(-c3cccc(Cl)c3F)cnc21` [Example 359, 6-(3-Chloro-2-fluoro-phenyl)-3-methyl-1-(3-pyridylmethyl)imidazo[4,5-b]pyridin-2-one] reads 0.096 µM; that for `Cc1cccc(-c2cnc3c(c2)n(CC(=O)N(C)C)c(=O)n3C)c1` [Example 583, N,N-Dimethyl-2-[3-methyl-6-(m-tolyl)-2-oxo-imidazo[4,5-b]pyridin-1-yl]acetamide], 0.051 µM. For the compound `COc1cccnc1Cn1c(=O)[nH]c2ncc(-c3cccc(C(F)(F)F)c3)cc21` [Example 233, 1-[(3-Methoxy-2-pyridyl)methyl]-6-[3-(trifluoromethyl)phenyl]-3H-imidazo[4,5-b]pyridin-2-one], the IC50 under setting [2] was found to be 2.83 µM. Regarding `Cn1cc(Cn2c(=O)n(C)c3ncc(-c4ccc(F)c(F)c4)cc32)nn1` [Example 549, 6-(3,4-Difluorophenyl)-3-methyl-1-[(1-methyltriazol-4-yl)methyl]imidazo[4,5-b]pyridin-2-one], the IC50 under setting [3] came to 0.467 µM. As for `Cc1c(F)ccc(-c2cnc3c(c2)n(CC(=O)N(C)C)c(=O)n3CF)c1F` [Example 599, 2-[6-(2,4-Difluoro-3-methyl-phenyl)-3-(fluoromethyl)-2-oxo-imidazo[4,5-b]pyridin-1-yl]-N,N-dimethyl-acetamide], under setting [3], the IC50 came to 0.025 µM. As to `O=c1[nH]c2ncc(-c3cccc(C(F)(F)F)c3)cc2n1Cc1cnccn1` [Example 253, 1-(Pyrazin-2-ylmethyl)-6-[3-(trifluoromethyl)phenyl]-3H-imidazo[4,5-b]pyridin-2-one], the IC50 under setting [2] was found to be 0.066 µM. As for `Cc1cc(-c2cnc3[nH]c(=O)n(Cc4cccnc4)c3c2)ccc1F` [Example 294, 6-(4-Fluoro-3-methyl-phenyl)-1-(3-pyridylmethyl)-3H-imidazo[4,5-b]pyridin-2-one], the IC50 under setting [2] stood at 0.023 µM. On to `CNC(=O)Cn1c(=O)[nH]c2ncc(-c3ccc(OC)c(C)c3)cc21` [Example 439, 2-[6-(4-Methoxy-3-methyl-phenyl)-2-oxo-3H-imidazo[4,5-b]pyridin-1-yl]-N-methyl-acetamide], for which the IC50 under setting [1] turned out to be 3.37 µM. Turning to `Cn1c(=O)n(Cc2cccnn2)c2cc(-c3ccc(F)c(OC(F)F)c3)cnc21` [Example 542, 6-[3-(Difluoromethoxy)-4-fluoro-phenyl]-3-methyl-1-(pyridazin-3-ylmethyl)imidazo[4,5-b]pyridin-2-one], the IC50 under setting [3] worked out at 0.016 µM. `O=c1[nH]c2ncc(-c3ccccc3)cc2n1CCN1CCC1` [Example 153, 1-[2-(Azetidin-1-yl)ethyl]-6-phenyl-3H-imidazo[4,5-b]pyridin-2-one]: the IC50 under setting [2] was 0.283 µM. The same measure, in the same setting: the result for `O=c1[nH]c2ncc(-c3cccc(Cl)c3)cc2n1Cc1ccccn1` [Example 282, 6-(3-Chlorophenyl)-1-(2-pyridylmethyl)-3H-imidazo[4,5-b]pyridin-2-one] reads 2.61 µM; that for `O=c1[nH]c2ncc(-c3ccc(F)c(F)c3)cc2n1Cc1cncc(F)c1` [Example 298, 6-(3,4-Difluorophenyl)-1-[(5-fluoro-3-pyridyl)methyl]-3H-imidazo[4,5-b]pyridin-2-one], 0.032 µM.

As to `Cn1c(=O)n(Cc2cncc(F)c2)c2cc(-c3cccc(Cl)c3F)cnc21` [Example 349, 6-(3-Chloro-2-fluoro-phenyl)-1-[(5-fluoro-3-pyridyl)methyl]-3-methyl-imidazo[4,5-b]pyridin-2-one], under setting [3], the concentration for half-maximal inhibition (IC50) was 0.107 µM. With `Cn1c(=O)n(CC(=O)N2CC(F)C2)c2cc(-c3ccc(F)c(C(F)(F)F)c3)cnc21` [Example 407, 1-[2-(3-Fluoroazetidin-1-yl)-2-oxo-ethyl]-6-[4-fluoro-3-(trifluoromethyl)phenyl]-3-methyl-imidazo[4,5-b]pyridin-2-one], the IC50 under setting [3] turned out to be 0.031 µM. With `COc1cc(Cn2c(=O)[nH]c3ncc(-c4cccc(C(F)(F)F)c4)cc32)cc(OC)c1` [Example 510, 1-[(3,5-Dimethoxyphenyl)methyl]-6-[3-(trifluoromethyl)phenyl]-3H-imidazo[4,5-b]pyridin-2-one], the IC50 under setting [1] is 17.4 µM.

For the compound `COc1cc(F)ccc1-c1cnc2[nH]c(=O)n(Cc3cccc(C#N)c3)c2c1` [Example 478, 3-[[6-(4-Fluoro-2-methoxy-phenyl)-2-oxo-3H-imidazo[4,5-b]pyridin-1-yl]methyl]benzonitrile], the IC50 under setting [1] worked out at 3.04 µM. For the compound `Cc1csc(-c2cnc3c(c2)n(CC(=O)N2CC(F)C2)c(=O)n3C)n1` [Example 86, 1-[2-(3-Fluoroazetidin-1-yl)-2-oxo-ethyl]-3-methyl-6-(4-methylthiazol-2-yl)imidazo[4,5-b]pyridin-2-one], the IC50 under setting [2] was 1.6 µM. For `NC(=O)Cn1c(=O)[nH]c2ncc(-c3cccc(C(F)(F)F)c3)cc21` [Example 432, 2-[2-Oxo-6-[3-(trifluoromethyl)phenyl]-3H-imidazo[4,5-b]pyridin-1-yl]acetamide], the IC50 under setting [3] came out at 0.962 µM. On to `Cn1c(=O)n(Cc2cccnc2)c2cc(-c3ccc(F)c(C(F)(F)F)c3)cnc21` [Example 360, 6-[4-Fluoro-3-(trifluoromethyl)phenyl]-3-methyl-1-(3-pyridylmethyl)imidazo[4,5-b]pyridin-2-one], for which the IC50 under setting [3] was 0.034 µM. `COc1ccc(-c2cnc3[nH]c(=O)n(CC(=O)N(C)C4CC4)c3c2)cc1` [Example 41, N-Cyclopropyl-2-[6-(4-methoxyphenyl)-2-oxo-3H-imidazo[4,5-b]pyridin-1-yl]-N-methyl-acetamide]: the IC50 under setting [4] is 8.72 µM. Consider `O=c1[nH]c2ncc(-c3cccc(C(F)F)c3)cc2n1Cc1ccccn1` [Example 287, 6-[3-(Difluoromethyl)phenyl]-1-(2-pyridylmethyl)-3H-imidazo[4,5-b]pyridin-2-one], for which the half-maximal inhibitory concentration (IC50) under setting [2] stood at 0.107 µM. For the compound `O=C(Cn1c(=O)[nH]c2ncc(-c3ccc(F)c(Cl)c3)cc21)c1cccs1` [Example 464, 6-(3-Chloro-4-fluoro-phenyl)-1-[2-oxo-2-(2-thienyl)ethyl]-3H-imidazo[4,5-b]pyridin-2-one], the IC50 under setting [3] was 0.359 µM. On the same count and under the same terms, the same measure for `CN(C)C(=O)Cn1c(=O)n(C)c2ncc(-c3cc(F)cc(F)c3)cc21` [Example 428, 2-[6-(3,5-Difluorophenyl)-3-methyl-2-oxo-imidazo[4,5-b]pyridin-1-yl]-N,N-dimethyl-acetamide]: 0.126 µM; for `Cn1c(=O)n(CC(=O)N2CCC2)c2cc(-c3ccc(Cl)c(OC(F)F)c3)cnc21` [Example 592, 1-[2-(Azetidin-1-yl)-2-oxo-ethyl]-6-[4-chloro-3-(difluoromethoxy)phenyl]-3-methyl-imidazo[4,5-b]pyridin-2-one]: 0.071 µM. Consider `COc1ccc(-c2cnc3[nH]c(=O)n(CC(=O)N4CCCC4)c3c2)cc1` [Example 35, 6-(4-Methoxyphenyl)-1-(2-oxo-2-pyrrolidin-1-yl-ethyl)-3H-imidazo[4,5-b]pyridin-2-one], for which, under setting [4], the IC50 stood at 2.14 µM.

Regarding `CN(C)C(=O)Cn1c(=O)n(C)c2ncc(-c3ccc(F)c(C(F)F)c3)cc21` [Example 533, 2-[6-[3-(Difluoromethyl)-4-fluoro-phenyl]-3-methyl-2-oxo-imidazo[4,5-b]pyridin-1-yl]-N,N-dimethyl-acetamide], the IC50 under setting [3] was found to be 0.025 µM.

Turning to `O=c1[nH]cccc1Cn1c(=O)[nH]c2ncc(-c3cccc(C(F)(F)F)c3)cc21` [Example 32, 1-[(2-Oxo-1H-pyridin-3-yl)methyl]-6-[3-(trifluoromethyl)phenyl]-3H-imidazo[4,5-b]pyridin-2-one], the IC50 under setting [2] is 8.33 µM.

For the compound `CCOc1ccccc1-c1cnc2[nH]c(=O)n(Cc3ccccc3F)c2c1` [Example 503, 6-(2-Ethoxyphenyl)-1-[(2-fluorophenyl)methyl]-3H-imidazo[4,5-b]pyridin-2-one], under setting [1], the concentration for half-maximal inhibition (IC50) turned out to be 5.49 µM. Turning to `Cc1cccc(C)c1-c1cnc2[nH]c(=O)n(CCN3CCCC3)c2c1` [Example 178, 6-(2,6-Dimethylphenyl)-1-(2-pyrrolidin-1-ylethyl)-3H-imidazo[4,5-b]pyridin-2-one], the IC50 under setting [2] was 20.7 µM. Regarding `Cc1cccc(C)c1-c1cnc2[nH]c(=O)n(CCN3CCC3)c2c1` [Example 157, 1-[2-(Azetidin-1-yl)ethyl]-6-(2,6-dimethylphenyl)-3H-imidazo[4,5-b]pyridin-2-one], under setting [2], the IC50 stood at 1.97 µM. In the case of `O=c1[nH]c2ncc(-c3cccc(OC(F)(F)F)c3)cc2n1CCN1CCC1` [Example 160, 1-[2-(Azetidin-1-yl)ethyl]-6-[3-(trifluoromethoxy)phenyl]-3H-imidazo[4,5-b]pyridin-2-one], under setting [2], the IC50 was 0.311 µM. Consider `Cc1cc(F)ccc1-c1cnc2[nH]c(=O)n(CC(=O)N3CCC3)c2c1` [Example 320, 1-[2-(Azetidin-1-yl)-2-oxo-ethyl]-6-(4-fluoro-2-methyl-phenyl)-3H-imidazo[4,5-b]pyridin-2-one], for which the IC50 under setting [3] came to 0.075 µM. On to `COCCNC(=O)Cn1c(=O)[nH]c2ncc(-c3cccnc3)cc21` [Example 445, N-(2-Methoxyethyl)-2-[2-oxo-6-(3-pyridyl)-3H-imidazo[4,5-b]pyridin-1-yl]acetamide], for which the IC50 under setting [1] was above 29 µM.

The record behind these values is US11759455B2, “Substituted 1H-imidazo[4,5-b]pyridin-2(3H)-ones and their use as GLUN2B receptor modulators” (JANSSEN PHARMACEUTICA NV, priority 2016, dated 2023).
